Data set [1] concerns the target T1, Metabotropic glutamate receptor 4 (Homo sapiens, UniProt Q14833). Briefly: Positive allosteric modulation of human mGluR4 expressed in CHO cells co-expressing Gqi5 assessed as increase in glutamate-induced calcium flux preincubated for 2.5 mins followed by glutamate addition by Fluo-4-AM dye based fluorescence assay. Type of data set: functional, cell-based. Conditions: read-out: EC50. A general note: Calcium flux is commonly read through the fluorescence of an indicator in the cells.

The target of data set [2] is T1, Metabotropic glutamate receptor 4. In words: Positive allosteric modulation of human mGluR4 expressed in CHO cells co-expressing Gqi5 assessed as increase in glutamate-induced calcium flux at 30 uM preincubated for 2.5 mins followed by glutamate addition by Fluo-4-AM dye based fluorescence assay relative to PHCCC. The format is functional, cell-based.
Data set [3] can be described thus: Clearance in rat liver microsomes. The format is ADME, microsome. (In general: Liver microsomes are vesicles of endoplasmic reticulum, rich in cytochrome P450 enzymes.)
A short description of data set [4]: Fraction unbound in human plasma. The format is ADME, cell-free.
The nature of data set [5]: Fraction unbound in rat plasma. The format is ADME, cell-free.
For a further data set, the target named is T2, Cytochrome P450 1A2 (Homo sapiens, UniProt P05177).
T2 sequence (P05177 whole entry): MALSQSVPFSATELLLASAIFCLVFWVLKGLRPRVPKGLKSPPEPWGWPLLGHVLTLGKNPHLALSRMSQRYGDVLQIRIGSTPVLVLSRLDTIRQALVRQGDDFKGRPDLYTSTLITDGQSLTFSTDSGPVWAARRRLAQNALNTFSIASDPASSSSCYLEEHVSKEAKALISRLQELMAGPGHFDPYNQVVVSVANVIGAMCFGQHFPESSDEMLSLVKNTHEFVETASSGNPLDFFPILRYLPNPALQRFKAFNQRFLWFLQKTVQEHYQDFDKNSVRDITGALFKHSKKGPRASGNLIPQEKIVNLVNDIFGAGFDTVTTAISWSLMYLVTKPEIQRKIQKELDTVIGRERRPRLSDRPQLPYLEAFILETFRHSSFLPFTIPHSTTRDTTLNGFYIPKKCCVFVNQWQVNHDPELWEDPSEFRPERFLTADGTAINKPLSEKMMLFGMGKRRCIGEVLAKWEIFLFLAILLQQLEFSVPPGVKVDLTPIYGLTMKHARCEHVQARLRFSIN
Briefly: Inhibition of CYP1A2 in human liver microsomes. The format is ADME.

Data set [6] deals with T3, CYP1A2 (induction through the aryl hydrocarbon receptor, AhR) (Homo sapiens, UniProt P35869).
T3 sequence (P35869 whole entry): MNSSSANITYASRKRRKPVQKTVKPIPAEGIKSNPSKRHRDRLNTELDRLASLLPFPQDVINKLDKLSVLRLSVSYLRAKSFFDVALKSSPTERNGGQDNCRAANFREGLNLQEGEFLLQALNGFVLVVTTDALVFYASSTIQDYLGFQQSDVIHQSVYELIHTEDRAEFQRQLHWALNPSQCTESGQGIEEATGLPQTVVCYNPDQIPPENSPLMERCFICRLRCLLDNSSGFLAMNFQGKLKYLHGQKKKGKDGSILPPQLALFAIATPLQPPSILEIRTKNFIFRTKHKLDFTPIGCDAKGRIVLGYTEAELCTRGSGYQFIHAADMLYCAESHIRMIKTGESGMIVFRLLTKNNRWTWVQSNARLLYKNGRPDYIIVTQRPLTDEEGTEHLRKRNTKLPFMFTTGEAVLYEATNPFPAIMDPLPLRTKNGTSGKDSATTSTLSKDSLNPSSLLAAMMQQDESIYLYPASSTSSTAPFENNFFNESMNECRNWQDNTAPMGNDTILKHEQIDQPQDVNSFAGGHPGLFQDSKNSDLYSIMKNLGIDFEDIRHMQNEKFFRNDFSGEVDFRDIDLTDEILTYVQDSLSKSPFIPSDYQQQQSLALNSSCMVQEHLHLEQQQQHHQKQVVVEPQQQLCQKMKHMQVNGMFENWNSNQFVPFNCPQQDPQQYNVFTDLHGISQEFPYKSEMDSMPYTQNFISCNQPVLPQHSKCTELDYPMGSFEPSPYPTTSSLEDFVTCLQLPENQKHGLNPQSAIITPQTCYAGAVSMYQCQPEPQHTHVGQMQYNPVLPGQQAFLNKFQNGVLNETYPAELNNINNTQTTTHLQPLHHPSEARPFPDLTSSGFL
Briefly: Activation of human AhR assessed as induction of CYP1A2 relative to control. Type of data set: ADME. The following applies: read-out: FC.

The nature of data set [7]: Plasma concentration in rat at 10 mg/kg, po after 1 hr. Type of data set: ADME, organism-based.
Data set [8] can be described thus: Drug uptake in rat brain at 10 mg/kg, po after 1 hr. Conditions: read-out: Drug uptake. The format is ADME, organism-based.
Data set [9] in a line: Brain to plasma partition coefficient, Kp of the compound in rat at 10 mg/kg, po after 1 hr. The following applies: brain and plasma. Type of data set: ADME, organism-based.
Data set [10] can be described thus: Unbound brain to plasma concentration ratio in rat at 10 mg/kg, po after 1 hr. Conditions: brain and plasma, read-out: K(p,uu,brain). The format is ADME, organism-based.
Another data set relates to MDR1 (P-gp). In words: Efflux ratio of permeability in MDCK-MDR1 cells. Conditions: dog. Type of data set: ADME, cell-based, Canis lupus familiaris.

T1 sequence (Q14833 whole entry): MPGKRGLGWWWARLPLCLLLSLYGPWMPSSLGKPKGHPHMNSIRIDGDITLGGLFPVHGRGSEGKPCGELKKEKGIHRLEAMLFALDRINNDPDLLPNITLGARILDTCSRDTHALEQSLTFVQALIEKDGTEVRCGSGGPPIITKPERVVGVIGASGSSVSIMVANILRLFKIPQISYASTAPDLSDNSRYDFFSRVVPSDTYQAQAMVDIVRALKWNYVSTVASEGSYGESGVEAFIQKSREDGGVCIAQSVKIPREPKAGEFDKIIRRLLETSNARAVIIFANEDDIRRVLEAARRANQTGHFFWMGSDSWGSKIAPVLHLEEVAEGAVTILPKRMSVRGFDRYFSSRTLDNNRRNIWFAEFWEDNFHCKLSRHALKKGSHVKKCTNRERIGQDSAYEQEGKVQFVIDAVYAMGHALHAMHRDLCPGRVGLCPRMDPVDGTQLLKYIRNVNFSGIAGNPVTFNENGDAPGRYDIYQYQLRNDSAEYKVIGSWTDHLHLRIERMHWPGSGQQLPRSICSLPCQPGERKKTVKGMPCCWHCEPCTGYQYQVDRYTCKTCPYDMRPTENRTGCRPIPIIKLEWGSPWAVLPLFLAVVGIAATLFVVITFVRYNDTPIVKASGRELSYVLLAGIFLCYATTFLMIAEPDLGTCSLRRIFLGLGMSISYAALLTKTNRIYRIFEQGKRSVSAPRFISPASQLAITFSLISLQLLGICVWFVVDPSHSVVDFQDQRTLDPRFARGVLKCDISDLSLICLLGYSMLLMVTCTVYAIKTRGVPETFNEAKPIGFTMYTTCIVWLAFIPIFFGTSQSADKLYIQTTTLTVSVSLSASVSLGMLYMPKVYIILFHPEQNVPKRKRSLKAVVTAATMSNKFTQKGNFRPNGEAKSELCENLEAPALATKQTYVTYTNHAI

Take `Cn1nc(C2CC2)c2ccc(Nc3n[nH]c4cccnc34)cc21`: the EC50 (as a rule, the concentration giving half of the maximal effect) in data set [1] amounted to 43 nM. In [2], the Emax (usually the size of the effect at its maximum, as opposed to the concentration needed) was 88.7%. Further, in [3], the CLhep predicted was 21.5 mL/min/kg. Also, the fraction unbound (in general, free concentration divided by total concentration) in data set [4] was 0.022; in data set [5], 0.024. For the same molecule, on Cytochrome P450 1A2, the midpoint of inhibition, the IC50, lay at 350 nM. Also, in [6], the fold induction came out at 2.3. Further, the concentration at 1 h in data set [7] came out at 787 ng/mL; in data set [8], 816 ng/g. Besides, in [9], the partition ratio (Kp) (usually tissue or fluid exposure divided by exposure in the circulation) at 1 h came to 1.04. Besides, the Kp uu at 1 h in [10] worked out at 0.3. Besides, the efflux ratio (usually a quotient of directional permeabilities that is used to spot active efflux) with MDR1 (P-gp) was found to be 1.2.

The values are drawn from ChEMBL document CHEMBL4229425, “Discovery and characterization of N-(1,3-dialkyl-1H-indazol-6-yl)-1H-pyrazolo[4,3-b]pyridin-3-amine scaffold as mGlu4 positive allosteric modulators that mitigate CYP1A2 induction liability” (Bioorg Med Chem Lett, 2018).
